Reference: patent US20260347338A1, “PYRIMIDINE/PYRIDINE DERIVATIVES OR SALTS THEREOF AND PHARMACEUTICAL COMPOSITIONS COMPRISING THE SAME” (YUHAN CORPORATION, priority 2023, published 2026)
Where a name gives a salt, the structure may show the parent alone.

Target: T1, human recombinant HPK1 (Homo sapiens, UniProt Q92918)
T1 construct: purchased BPS Bioscience
Experiment: Inhibitory activity against human recombinant HPK1 (TR-FRET)
Format: biochemical
Details: ULight-p70S6K peptide, ATP at Km, room temperature, 1 hour, 0.32 to 1000 nM compound
Summary of the method: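 Recombinant human HPK1 with ULight-p70S6K peptide and ATP at Km, 1 h at room temperature in HEPES pH 7.4 buffer with Mg2+, Mn2+, EGTA, DTT; compounds 0.32–1000 nM final. EDTA stop, Eu-anti-phosphopeptide TR-FRET read (665 nm); IC50 from % inhibition versus DMSO, binned A–D at 10, 50, 100 nM.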

T1 sequence (Q92918 whole entry): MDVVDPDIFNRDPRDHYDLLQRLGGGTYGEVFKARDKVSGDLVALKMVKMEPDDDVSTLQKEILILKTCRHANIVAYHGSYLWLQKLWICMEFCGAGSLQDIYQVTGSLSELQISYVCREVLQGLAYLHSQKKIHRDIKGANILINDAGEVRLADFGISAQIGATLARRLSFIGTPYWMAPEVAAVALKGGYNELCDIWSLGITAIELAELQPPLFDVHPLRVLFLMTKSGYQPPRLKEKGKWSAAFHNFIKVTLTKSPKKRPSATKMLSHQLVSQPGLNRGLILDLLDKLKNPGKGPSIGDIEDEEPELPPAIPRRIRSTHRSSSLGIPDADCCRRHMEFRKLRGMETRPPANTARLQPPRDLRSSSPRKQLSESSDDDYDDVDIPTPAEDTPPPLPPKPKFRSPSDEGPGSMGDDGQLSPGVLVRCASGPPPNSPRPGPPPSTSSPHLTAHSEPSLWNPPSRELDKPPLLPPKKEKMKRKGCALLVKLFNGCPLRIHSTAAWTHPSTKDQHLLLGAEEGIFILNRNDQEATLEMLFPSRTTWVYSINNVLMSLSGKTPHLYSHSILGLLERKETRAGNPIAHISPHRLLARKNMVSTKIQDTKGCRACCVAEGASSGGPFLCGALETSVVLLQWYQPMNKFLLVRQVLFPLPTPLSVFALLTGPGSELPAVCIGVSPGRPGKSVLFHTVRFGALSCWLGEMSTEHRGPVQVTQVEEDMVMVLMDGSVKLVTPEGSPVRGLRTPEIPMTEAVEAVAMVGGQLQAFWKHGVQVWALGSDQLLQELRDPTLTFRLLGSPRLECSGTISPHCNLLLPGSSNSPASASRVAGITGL

Row | Compound | IC50 [nM]
1 | COc1cccc(F)c1-c1nccc(Nc2cc(N3CCC[C@H](O)C3)c(-c3cnn(C)c3)cn2)n1 [Example 12, (S)-1-(2-((2-(2-fluoro-6-methoxyphenyl)pyrimidin-4-yl)amino)-5-(1-methyl-1H-pyrazol-4-yl)pyridin-4-yl)piperidin-3-ol] | ≤ 10
2 | COc1cccc(F)c1-c1nccc(Nc2cc(N3CCC[C@H](N)C3)c(-c3ccc(OCCN(C)C)nc3)cn2)n1 [Example 249, (S)-4-(3-aminopiperidin-1-yl)-6′-(2-(dimethylamino)ethoxy)-N-(2-(2-fluoro-6-methoxyphenyl)pyrimidin-4-yl)-[3,3′-bipyridin]-6-amine hydrochloride] | ≤ 10
3 | COc1cccc(F)c1-c1nc(Nc2cc(N3CCC[C@H](O)C3)c(C(=O)N[C@@H]3CC[C@H](O)C3)cn2)ccc1N [Example 202, 6-((5-amino-6-(2-fluoro-6-methoxyphenyl)pyridin-2-yl)amino)-N-((1R,3S)-3-hydroxycyclopentyl)-4-((S)-3-hydroxypiperidin-1-yl)nicotinamide] | ≤ 10
4 | COc1cccc(F)c1-c1nccc(Nc2cc(N3CC(O)C3)c(C(=O)C3CC3)cn2)n1 [Example 6, cyclopropyl(6-((2-(2-fluoro-6-methoxyphenyl)pyrimidin-4-yl)amino)-4-(3-hydroxyazetidin-1-yl)pyridin-3-yl)methanone] | 10 to 50
5 | CCOc1cccc(F)c1-c1nccc(Nc2cc(N3CCC[C@H](O)C3)c(-c3cnn(C4CCOCC4)c3)cn2)n1 [Example 25, (S)-1-(2-((2-(2-ethoxy-6-fluorophenyl)pyrimidin-4-yl)amino)-5-(1-(tetrahydro-2H-pyran-4-yl)-1H-pyrazol-4-yl)pyridin-4-yl)piperidin-3-ol] | 10 to 50
6 | COc1cccc(F)c1-c1nccc(Nc2cc(N3CCC(CCN(C)C)CC3)c(-c3cnn(C(F)F)c3)cn2)n1 [Example 147, N-(5-(1-(difluoromethyl)-1H-pyrazol-4-yl)-4-(4-(2-(dimethylamino)ethyl)piperidin-1-yl)pyridin-2-yl)-2-(2-fluoro-6-methoxyphenyl)pyrimidin-4-amine] | ≤ 10
7 | COc1cccc(F)c1-c1nccc(Nc2cc(N3CCC[C@H](O)C3)c(-c3ccc(C(=O)N4CCN(C)CC4)nc3)cn2)n1 [Example 36, (S)-(6′-((2-(2-fluoro-6-methoxyphenyl)pyrimidin-4-yl)amino)-4′-(3-hydroxypiperidin-1-yl)-[3,3′-bipyridin]-6-yl)(4-methylpiperazin-1-yl)methanone] | ≤ 10
8 | COc1cccc(F)c1-c1nccc(Nc2cc(N3CCC(N(C)C)C3)c(-c3cnn(C4CCOCC4)c3)cn2)n1 (stereo not drawn) [Example 44, N-(4-(3-(dimethylamino)pyrrolidin-1-yl)-5-(1-(tetrahydro-2H-pyran-4-yl)-1H-pyrazol-4-yl)pyridin-2-yl)-2-(2-fluoro-6-methoxyphenyl)pyrimidin-4-amine] | 10 to 50
9 | COc1cccc(F)c1-c1nc(Nc2cc(N3CCC[C@H](N)C3)c(-c3cnn(C(C)C)c3)cn2)ccc1C#N [Example 328, 6-((4-((S)-3-aminopiperidin-1-yl)-5-(1-isopropyl-1H-pyrazol-4-yl)pyridin-2-yl)amino)-2-(2-fluoro-6-methoxyphenyl)nicotinonitrile hydrochloride] | ≤ 10
10 | COc1cccc(F)c1-c1nccc(Nc2cc(N3CCC[C@H](O)C3)c(-c3cnn(C4CCN(C)CC4)c3)cn2)n1 [Example 15, (S)-1-(2-((2-(2-fluoro-6-methoxyphenyl)pyrimidin-4-yl)amino)-5-(1-(1-methylpiperidin-4-yl)-1H-pyrazol-4-yl)pyridin-4-yl)piperidin-3-ol] | ≤ 10
11 | COc1cccc(F)c1-c1nccc(Nc2cc(N3C[C@@H](N)C[C@@H](F)C3)c(-c3cnn(C(F)F)c3)cn2)n1 [Example 303, N-(4-((3S,5R)-3-amino-5-fluoropiperidin-1-yl)-5-(1-(difluoromethyl)-1H-pyrazol-4-yl)pyridin-2-yl)-2-(2-fluoro-6-methoxyphenyl)pyrimidin-4-amine hydrochloride] | ≤ 10
12 | COc1cccc(F)c1-c1nccc(Nc2cc(N3CCC[C@H](N)C3)c(-c3ccc4c(c3)OCC(=O)N4C)cn2)n1 [Example 261, (S)-7-(4-(3-aminopiperidin-1-yl)-6-((2-(2-fluoro-6-methoxyphenyl)pyrimidin-4-yl)amino)pyridin-3-yl)-4-methyl-2H-benzo[b][1,4]oxazin-3(4H)-one hydrochloride] | ≤ 10
13 | COc1cccc(F)c1-c1nccc(Nc2cc(N3CC[C@@H](F)[C@H](O)C3)c(-c3cnn(C4CCOCC4)c3)cn2)n1 [Example 94, (3R,4R)-4-fluoro-1-(2-((2-(2-fluoro-6-methoxyphenyl)pyrimidin-4-yl)amino)-5-(1-(tetrahydro-2H-pyran-4-yl)-1H-pyrazol-4-yl)pyridin-4-yl)piperidin-3-ol] | ≤ 10
14 | COc1cccc(F)c1-c1nc(Nc2cc(N3CCC[C@H](N)C3)c(-c3cnn(C(F)F)c3)cn2)ccc1C#N [Example 301, 6-((4-((S)-3-aminopiperidin-1-yl)-5-(1-(difluoromethyl)-1H-pyrazol-4-yl)pyridin-2-yl)amino)-2-(2-fluoro-6-methoxyphenyl)nicotinonitrile hydrochloride] | ≤ 10
15 | O[C@H]1CCCN(c2cc(Nc3ccnc(-c4cnn5ccccc45)n3)ncc2-c2cnn(C3CCOCC3)c2)C1 [Example 27, (S)-1-(2-((2-(pyrazolo[1,5-a]pyridin-3-yl)pyrimidin-4-yl)amino)-5-(1-(tetrahydro-2H-pyran-4-yl)-1H-pyrazol-4-yl)pyridin-4-yl)piperidin-3-ol] | 10 to 50
16 | OC1CN(Cc2csc(-c3nccc(Nc4cc(N5CCC[C@H](O)C5)c(-c5cnn(C6CCOCC6)c5)cn4)n3)c2)C1 [Example 188, (S)-1-(2-((2-(4-((3-hydroxyazetidin-1-yl)methyl)thiophen-2-yl)pyrimidin-4-yl)amino)-5-(1-(tetrahydro-2H-pyran-4-yl)-1H-pyrazol-4-yl)pyridin-4-yl)piperidin-3-ol] | 10 to 50
17 | COc1cccc(F)c1-c1nccc(Nc2cc(N3CC[C@H](N)[C@H](F)C3)c(-c3cnn(C(F)F)c3)cn2)n1 [Example 307, N-(4-((3R,4S)-4-amino-3-fluoropiperidin-1-yl)-5-(1-(difluoromethyl)-1H-pyrazol-4-yl)pyridin-2-yl)-2-(2-fluoro-6-methoxyphenyl)pyrimidin-4-amine hydrochloride] | ≤ 10
18 | COc1cccc(F)c1-c1nccc(Nc2cc(N3CCC[C@H](N)C3)c(-c3cnn(C(F)F)c3)cn2)n1 [Example 73, (S)-N-(4-(3-aminopiperidin-1-yl)-5-(1-(difluoromethyl)-1H-pyrazol-4-yl)pyridin-2-yl)-2-(2-fluoro-6-methoxyphenyl)pyrimidin-4-amine hydrochloride] | ≤ 10
19 | COc1cccc(F)c1-c1nccc(Nc2cc(N3CCC[C@H](O)C3)c(-c3cccnc3)cn2)n1 [Example 42, (S)-1-(6-((2-(2-fluoro-6-methoxyphenyl)pyrimidin-4-yl)amino)-[3,3′-bipyridin]-4-yl)piperidin-3-ol] | 10 to 50
20 | COc1cccc(F)c1-c1nccc(Nc2cc(N3CCC[C@H](O)C3)c(-c3ccc4nccn4c3)cn2)n1 [Example 61, (S)-1-(2-((2-(2-fluoro-6-methoxyphenyl)pyrimidin-4-yl)amino)-5-(imidazo[1,2-a]pyridin-6-yl)pyridin-4-yl)piperidin-3-ol] | 10 to 50
21 | COc1cc(F)cc(F)c1-c1nccc(Nc2cc(N3CC[C@@H](F)[C@H](N)C3)c(-c3cnn(C(C)C)c3)cn2)n1 [Example 339, N-(4-((3R,4R)-3-amino-4-fluoropiperidin-1-yl)-5-(1-isopropyl-1H-pyrazol-4-yl)pyridin-2-yl)-2-(2,4-difluoro-6-methoxyphenyl)pyrimidin-4-amine hydrochloride] | ≤ 10
22 | COc1cc(F)cc(F)c1-c1nccc(Nc2cc(N3CCC[C@H](N)C3)c(C#CC3CCOCC3)cn2)n1 [Example 110, (S)-N-(4-(3-aminopiperidin-1-yl)-5-((tetrahydro-2H-pyran-4-yl)ethynyl)pyridin-2-yl)-2-(2,4-difluoro-6-methoxyphenyl)pyrimidin-4-amine] | ≤ 10
23 | COc1cccc(F)c1-c1nccc(Nc2cc(N3CCC[C@H](O)C3)c(-c3cnn(C(C)C)c3)cn2)n1 [Example 13, (S)-1-(2-((2-(2-fluoro-6-methoxyphenyl)pyrimidin-4-yl)amino)-5-(1-isopropyl-1H-pyrazol-4-yl)pyridin-4-yl)piperidin-3-ol] | ≤ 10
24 | COc1cccc(F)c1-c1nccc(Nc2cc(N3CCC[C@H](N)C3)c(-c3ccc(C4CCN(C)CC4)nc3)cn2)n1 [Example 83, (S)-4-(3-aminopiperidin-1-yl)-N-(2-(2-fluoro-6-methoxyphenyl)pyrimidin-4-yl)-6′-(1-methylpiperidin-4-yl)-[3,3′-bipyridin]-6-amine hydrochloride] | ≤ 10
25 | COc1cc(F)cc(F)c1-c1nc(Nc2cc(N3CCC[C@H](O)C3)c(-c3cnn(CC(F)(F)F)c3)cn2)ccc1C#N [Example 317, 2-(2,4-difluoro-6-methoxyphenyl)-6-((4-((S)-3-hydroxypiperidin-1-yl)-5-(1-(2,2,2-trifluoroethyl)-1H-pyrazol-4-yl)pyridin-2-yl)amino)nicotinonitrile] | ≤ 10
26 | COc1cccc(F)c1-c1nccc(Nc2cc(N3CCC(CCN(C)C)CC3)c(-c3cnn(CC(F)(F)F)c3)cn2)n1 [Example 148, N-(4-(4-(2-(dimethylamino)ethyl)piperidin-1-yl)-5-(1-(2,2,2-trifluoroethyl)-1H-pyrazol-4-yl)pyridin-2-yl)-2-(2-fluoro-6-methoxyphenyl)pyrimidin-4-amine] | ≤ 10
27 | CCn1cc(-c2cnc(Nc3ccc(C#N)c(-c4c(F)cccc4OC)n3)cc2N2CCC[C@H](N)C2)cn1 [Example 327, 6-((4-((S)-3-aminopiperidin-1-yl)-5-(1-ethyl-1H-pyrazol-4-yl)pyridin-2-yl)amino)-2-(2-fluoro-6-methoxyphenyl)nicotinonitrile hydrochloride] | ≤ 10
